{"source": "paper PMC8811960", "about": "“A Novel 2-Carbon-Linked Dimeric Artemisinin With Potent Antileukemic Activity and Favorable Pharmacology” (Frontiers in Oncology, 2022)", "key": {"[1]": {"test_system": "MOLM14", "assay": "alamarBlue growth inhibition, MOLM14", "assay_type": "cell-based", "details": "Homo sapiens, MOLM-14; MOLM14, 48h, alamarBlue, mean of 2 independent assays ± SD; read-out: IC50", "method": "(§1) Cytotoxicity was assessed using alamarBlue assays (Life Technologies, Grand Island, NY) following manufacturer’s guidelines. Cell death was verified by Annexin V/7-aminoactinomycin D (7AAD) staining (BioLegend, San Diego, CA) per manufacturer’s guidelines.\nIn this experiment, provided to show the entire concentration:response range, MOLM14 AML cells were cultured with a range of concentrations of artesunate (AS), ART838, ART631, and ART576 for 48h. Graph indicates growth inhibition relative to vehicle (DMSO)-treated controls by alamarBlue absorbance assays. Data points and error bars represent mean and SD of 3 independent experiments done in triplicate."}, "[2]": {"test_system": "MV4;11", "assay": "alamarBlue growth inhibition, MV4;11", "assay_type": "cell-based", "details": "Homo sapiens, MV4;11, 48h, mean of 2 independent assays ± SD", "method": "as §1"}, "[3]": {"test_system": "TF1", "assay": "alamarBlue growth inhibition, TF1", "assay_type": "cell-based", "details": "Homo sapiens, TF-1, TF1, 48h, mean of 2 independent assays ± SD", "method": "as §1"}, "[4]": {"assay": "Stability in mouse plasma (EDTA)", "assay_type": "in vitro ADME", "details": "10 µM, 37°C, 1h", "method": "(§2) The metabolic stability of ART631 was assessed in human and mouse plasma and liver microsomes (LM). For phase I microsomal stability assays, analogs (10 µM in <1% acetonitrile) were incubated in PBS containing liver microsomes, with or without cofactors ([22]). Microsomal controls (without cofactors) were used to determine non-enzymatic degradation. All experiments were incubated at 37°C for 1h and performed in duplicate. Reactions were stopped with acetonitrile and analyzed as described below.\n(§3) ART631 was extracted from 25 µL plasma or microsomal solutions with 100 µL acetonitrile containing artemisinin (i.e. the natural product) as internal standard. […] Mobile phase A was ammonium acetate (2mM) containing 0.1% formic acid, and mobile phase B was acetonitrile containing 0.1% formic acid. The gradient started with mobile phase B and was held at 40% for 0.5 minutes with a flow rate of 0.4 mL/min, then increased to 100% over 1.5 minutes and held for 2.0 minutes, and finally returned back to 40% mobile phase B and allowed to equilibrate for 2.0 minutes. An AB Sciex 5500 triple quadrupole mass spectrometer operated in positive electrospray ionization mode was used for the detection of ART631. For stability studies, the ratio of ART631 to the internal standard, artemisinin, was assessed. […]"}, "[5]": {"assay": "Stability in human plasma (EDTA)", "assay_type": "in vitro ADME", "details": "10 µM, 37°C, 1h", "method": "as §2, §3"}, "[6]": {"test_system": "AML45 PDX", "assay": "luc-labeled AML45 patient-derived xenograft", "assay_type": "in vivo, NRG mice", "details": "ART631 monotherapy p=0.0029", "excerpt": "Immunodeficient NOD-Rag1^nullIL2rg^null (NRG) mice were purchased from Jackson Laboratory (Bar Harbor, ME), bred and housed at the University of Maryland Baltimore. Similar to our previous publication ([20]). mice were transplanted IV with luc-labeled human AML cell lines or cryopreserved AML patient cells on day -10, and baseline total body luminescence was quantified on day 0 by Xenogen bioluminescence imaging (Xenogen IVIS Spectrum; PerkinElmer, Waltham, MA). Mice were allocated to treatment groups so that each group had similar average day 0 luminescence, then groups were administered drugs per oral (PO; gavage). Luminescence of each mouse was assessed over time and compared with that mouse’s day 0 luminescence (fold-change AML burden). Clinical behavior, appearance, weight, and survival were also monitored.\nWe then compared the efficacy of 15 mg/kg/d ART631 monotherapy, versus 150 mg/kg/d VEN plus 30 mg/kg/d SOR, versus ART631 combined with VEN plus SOR (i.e. SAV) at the previously indicated doses, using a luc-labeled AML45 PDX model ( Figure 9A ). […]\nFigure 9 VEN plus SOR plus ART631 inhibited growth of an AML PDX. […] (A) After Xenogen quantification of baseline total body luminescence on day 0, mice were placed into balanced experimental groups prior to drug administration via gavage, then treated per our previously established MTD PO x 5 day schedule (5 days on, 9 days off). […]"}, "[7]": {"test_system": "DDIT3", "assay": "qRT-PCR for DDIT3 mRNA", "assay_type": "cell-based, human", "details": "MOLM14, 18h, ART631 200 nM, ART838 200 nM, AS 10 uM, similar results in MV4;11 and ML2", "method": "Cells were pre-treated with […] ROS detection reagent 5-(and 6-)-chloromethyl-2’,7’-dichlorodihydrofluorescein diacetate (CM-H2DCFDA, Life Technologies) for 30 min, followed by the iron chelator deferoxamine mesylate (DFO; 11 mM) for 60 min. Cells were then treated with ART631 (200 nM) or DMSO control for 18h, with subsequent analysis by flow cytometry. Western blotting and quantitative reverse transcription PCR (qRT-PCR) to assess for molecular markers of ROS-mediated apoptosis were performed as previously described ([20]).\nFigure 4 ART631 elevated ROS and CHOP levels and reduced MCL1 expression in MOLM14 AML cells. (A) MOLM14 AML cells were pre-treated with ROS detection reagent CM-H2DCFDA ([…]) for 30 min, pre-treated with deferoxamine mesylate (DFO; 11 mM) for 60 min, and then treated with ART631 (200 nM) or DMSO control for 18h. They were then analyzed by flow cytometry. Graph represents %CM-H2DCFDA fluorescence compared to vehicle (DMSO) control treated cells. Error bars represent SD from 3 independent experiments. (B) MOLM14 AML cells were treated for 18h with vehicle, AS (10 uM), ART838 (200 nM), ART631 (200 nM), cytarabine (AraC; 150 nM), or SOR (5 uM). Protein was isolated and western blotted for MCL1, BCL2, CHOP, and β-actin. (C) MOLM14 cells were treated as in (B) for 18h, total RNA isolated, cDNA synthesized, and SYBR Green qRT-PCR performed in triplicates. Ct values were normalized to housekeeping gene GAPDH and fold change shown relative to vehicle (DMSO) control. Error bars represent SD from 3 independent experiments done in triplicate."}, "[8]": {"test_system": "MOLM14, MV4;11, and HL60 human AML cells", "design": "method as in PMID 33560385", "details": "ART631 200 nM, VEN 50 nM, SOR 5 µM; MOLM14, MV4;11, HL60; cited from earlier work"}}}
{"smiles": "C=CCO/N=C(/C[C@H]1O[C@@H]2O[C@@]3(C)CC[C@H]4[C@H](C)CC[C@@H]([C@H]1C)[C@@]24OO3)[C@H]1O[C@@H]2O[C@@]3(C)CC[C@H]4[C@H](C)CC[C@@H]([C@H]1C)[C@@]24OO3", "note": "[ART631]", "values": [{"measurement": "IC50", "setting": "[1]", "value": "0.032 ± 0.004", "unit": "µM"}, {"measurement": "IC50", "setting": "[2]", "value": "0.027 ± 0.002", "unit": "µM"}, {"measurement": "IC50", "setting": "[3]", "value": "0.027 ± 0.002", "unit": "µM"}, {"measurement": "percentage remaining, Plasma (EDTA) Mouse", "setting": "[4]", "value": 62, "unit": "%"}, {"measurement": "percentage remaining, Plasma (EDTA) Human", "setting": "[5]", "value": 60, "unit": "%"}, {"measurement": "survival versus vehicle", "setting": "[6]", "value": "statistically significant increase in survival"}, {"measurement": "DDIT3 mRNA", "setting": "[7]", "value": "increased"}, {"measurement": "cell death as single agents", "setting": "[8]", "value": "less than 15%"}]}
